Measured values taken from the NIST ThermoML archive (doi:10.1016/j.jct.2005.10.004).
Where “and” joins values, the source holds several entries; their conditions need not be identical. Equal values may be shown once.

Test: xn = mol fraction of the nth substance listed
Conditions: Gas, Buoyancy - hydrostatic balance with magnetic suspension - one sinker

N#N [nitrogen] + C
Conditions | mass density
249.99 K, 13368 kPa, x2 = 0.8 | 161.09 kg/m3
249.99 K, 13369 kPa, x2 = 0.8 | 161.093 kg/m3
250 K, 1972.2 kPa, x2 = 0.8998 | 17.3493 kg/m3
250 K, 2229 kPa, x2 = 0.8998 | 19.7632 kg/m3
250 K, 12762 kPa, x2 = 0.8998 | 152.28 kg/m3 and 152.282 kg/m3
250 K, 15168 kPa, x2 = 0.8998 | 182.264 kg/m3
250 K, 18609 kPa, x2 = 0.8998 | 216.303 kg/m3
274.8 K, 11276 kPa, x2 = 0.8 | 109.07 kg/m3
274.81 K, 2552.2 kPa, x2 = 0.8 | 21.5902 kg/m3
274.81 K, 2552.3 kPa, x2 = 0.8 | 21.5893 kg/m3
274.81 K, 5055.3 kPa, x2 = 0.8 | 44.7483 kg/m3
274.81 K, 5055.4 kPa, x2 = 0.8 | 44.7496 kg/m3
274.81 K, 7550.3 kPa, x2 = 0.8 | 69.666 kg/m3 and 69.6651 kg/m3
274.81 K, 7562.1 kPa, x2 = 0.8 | 69.788 kg/m3
274.81 K, 7562.6 kPa, x2 = 0.8 | 69.7929 kg/m3
274.81 K, 9501.7 kPa, x2 = 0.8 | 90.1191 kg/m3
274.81 K, 9502.3 kPa, x2 = 0.8 | 90.1254 kg/m3
274.81 K, 10330 kPa, x2 = 0.8 | 98.956 kg/m3
274.81 K, 10337 kPa, x2 = 0.8 | 99.0305 kg/m3
274.81 K, 11275 kPa, x2 = 0.8 | 109.063 kg/m3
274.81 K, 12889 kPa, x2 = 0.8 | 126.201 kg/m3
274.81 K, 12890 kPa, x2 = 0.8 | 126.206 kg/m3
274.81 K, 14325 kPa, x2 = 0.8 | 141.105 kg/m3
274.81 K, 14327 kPa, x2 = 0.8 | 141.128 kg/m3
274.81 K, 15731 kPa, x2 = 0.8 | 155.191 kg/m3
274.81 K, 15733 kPa, x2 = 0.8 | 155.216 kg/m3
274.81 K, 16797 kPa, x2 = 0.8 | 165.435 kg/m3
274.81 K, 16816 kPa, x2 = 0.8 | 165.609 kg/m3
274.82 K, 8425.3 kPa, x2 = 0.8 | 78.7622 kg/m3
274.82 K, 9439.5 kPa, x2 = 0.8 | 89.4646 kg/m3
274.82 K, 11275 kPa, x2 = 0.8 | 109.065 kg/m3
274.82 K, 11277 kPa, x2 = 0.8 | 109.088 kg/m3
274.82 K, 12811 kPa, x2 = 0.8 | 125.374 kg/m3
274.99 K, 2012.7 kPa, x2 = 0.8 | 16.8448 kg/m3
274.99 K, 2211 kPa, x2 = 0.8998 | 17.4645 kg/m3
274.99 K, 4076.7 kPa, x2 = 0.8 | 35.4308 kg/m3
274.99 K, 6021.2 kPa, x2 = 0.8 | 54.1463 kg/m3
274.99 K, 6055.4 kPa, x2 = 0.8998 | 51.8525 kg/m3
274.99 K, 8019.2 kPa, x2 = 0.8 | 74.4425 kg/m3
274.99 K, 10017 kPa, x2 = 0.8 | 95.4954 kg/m3
274.99 K, 11989 kPa, x2 = 0.8 | 116.514 kg/m3 and 116.518 kg/m3
274.99 K, 14080 kPa, x2 = 0.8 | 138.416 kg/m3
274.99 K, 15091 kPa, x2 = 0.8998 | 145.151 kg/m3
274.99 K, 15497 kPa, x2 = 0.8 | 152.681 kg/m3
274.99 K, 16131 kPa, x2 = 0.8 | 158.862 kg/m3 and 158.861 kg/m3
274.99 K, 16805 kPa, x2 = 0.8998 | 161.533 kg/m3 and 161.536 kg/m3
274.99 K, 17724 kPa, x2 = 0.8998 | 169.816 kg/m3
274.99 K, 17726 kPa, x2 = 0.8998 | 169.823 kg/m3
275 K, 2005.1 kPa, x2 = 0.8998 | 15.7688 kg/m3
275 K, 4053.8 kPa, x2 = 0.8998 | 33.2951 kg/m3
275 K, 6055.4 kPa, x2 = 0.8998 | 51.8523 kg/m3
275 K, 8023.2 kPa, x2 = 0.8998 | 71.384 kg/m3
275 K, 10028 kPa, x2 = 0.8998 | 92.2879 kg/m3
275 K, 11444 kPa, x2 = 0.8998 | 107.355 kg/m3
275 K, 13322 kPa, x2 = 0.8998 | 127.156 kg/m3
299.91 K, 2564.5 kPa, x2 = 0.8 | 19.5987 kg/m3 and 19.5993 kg/m3
299.91 K, 4995 kPa, x2 = 0.8 | 39.306 kg/m3
